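Briefly, cells in 96-well plates were exposed to five compound concentrations for 48 h, and endpoints were estimated by linear interpolation. At the GI50, growth is halved.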 Activity calls are given as the source filed them. No stated cut-off is given here; in the data, active = GI50 up to about 1.1 µM and inactive = higher.
Experiments:
Assay in all cases: DTP human tumour cell line panel, 48 h
MDA-N = test system: MDA-N
Hs-578T = test system: Hs-578T
MDA-MB-435 = test system: MDA-MB-435
BT-549 = test system: BT-549
UACC-257 = test system: UACC-257
SF-295 = test system: SF-295
HCT-116 = test system: HCT-116
SF-539 = test system: SF-539
HOP-92 = test system: HOP-92
SNB-75 = test system: SNB-75
K562 = test system: K562
SF-268 = test system: SF-268
LOX IMVI = test system: LOX IMVI
A549 = test system: A549
NCI-H522 = test system: NCI-H522
SK-MEL-2 = test system: SK-MEL-2
Malme-3M = test system: Malme-3M
SK-MEL-28 = test system: SK-MEL-28
SK-MEL-5 = test system: SK-MEL-5
HL-60 = test system: HL-60

Which results are given for CC(=O)CC[N+](C)(C)C?
GI50 (MDA-N): 40.7 µM (inactive); GI50 (Hs-578T): 12.6 µM (inactive); GI50 (MDA-MB-435): 37.8 µM (inactive); GI50 (BT-549): 35 µM (inactive); GI50 (UACC-257): 25.8 µM (inactive); GI50 (SF-295): 83.6 µM (inactive); GI50 (HCT-116): 25.2 µM (inactive); GI50 (SF-539): 62.8 µM (inactive); GI50 (HOP-92): 10.7 µM (inactive); GI50 (SNB-75): 29 µM (inactive); GI50 (K562): 3.21 µM (inactive); GI50 (SF-268): 44.3 µM (inactive); GI50 (LOX IMVI): 14.1 µM (inactive); GI50 (A549): 83.4 µM (inactive); GI50 (NCI-H522): 0.929 µM (active); GI50 (SK-MEL-2): 36.4 µM (inactive); GI50 (Malme-3M): 16.1 µM (inactive); GI50 (SK-MEL-28): 28.5 µM (inactive); GI50 (SK-MEL-5): 30.3 µM (inactive); GI50 (HL-60): 4.42 µM (inactive)

Which results are given for COc1cc(C2CC(C)(Nc3ccccc3)Oc3cc4c(cc32)OCO4)cc(OC)c1OC (stereo not given)?
GI50 (MDA-N): 0.0412 µM (active); GI50 (Hs-578T): 0.105 µM (active); GI50 (MDA-MB-435): 0.0172 µM (active); GI50 (BT-549): 0.506 µM (active); GI50 (UACC-257): 2.2 µM (inactive); GI50 (SF-295): 0.199 µM (active); GI50 (HCT-116): 0.23 µM (active); GI50 (SF-539): 0.171 µM (active); GI50 (HOP-92): 15.8 µM (inactive); GI50 (SNB-75): 3.49 µM (inactive); GI50 (K562): 0.0933 µM (active); GI50 (SF-268): 4.58 µM (inactive); GI50 (LOX IMVI): 0.256 µM (active); GI50 (A549): 2.14 µM (inactive); GI50 (NCI-H522): 0.296 µM (active); GI50 (SK-MEL-2): 0.303 µM (active); GI50 (Malme-3M): 3.29 µM (inactive); GI50 (SK-MEL-28): 0.254 µM (active); GI50 (SK-MEL-5): 0.153 µM (active); GI50 (HL-60): 0.0906 µM (active)

Which results are given for N#CC1=C(S)N(C2OC(CO)C(O)C(O)C2O)C(c2ccccc2)=CC1c1ccccc1 (stereo not given)?
GI50 (MDA-N): 37.2 µM (inactive); GI50 (Hs-578T): 41.5 µM (inactive); GI50 (MDA-MB-435): 39.9 µM (inactive); GI50 (BT-549): 55.2 µM (inactive); GI50 (UACC-257): 51.6 µM (inactive); GI50 (SF-295): 34.3 µM (inactive); GI50 (HCT-116): 35.6 µM (inactive); GI50 (SF-539): 24.7 µM (inactive); GI50 (HOP-92): 31.8 µM (inactive); GI50 (SNB-75): 31.9 µM (inactive); GI50 (K562): 30.1 µM (inactive); GI50 (SF-268): 56.5 µM (inactive); GI50 (LOX IMVI): 28.1 µM (inactive); GI50 (A549): > 100 µM (inactive); GI50 (NCI-H522): 50.6 µM (inactive); GI50 (SK-MEL-2): 6.53 µM (inactive); GI50 (Malme-3M): 52.1 µM (inactive); GI50 (SK-MEL-28): 45 µM (inactive); GI50 (SK-MEL-5): 19.8 µM (inactive); GI50 (HL-60): 40.9 µM (inactive)

With COc1ccc(C(=O)/C=C/c2ccc(Oc3cc(C(=O)/C=C/c4ccc(O)cc4)c(O)cc3OC)cc2)c(O)c1 [RHUSCHALCONE I] as the compound, how does the GI50 (MDA-N) read?
The GI50 was 3.48 µM (inactive).

And the GI50 (Hs-578T)?
Its GI50 is 16.7 µM (inactive).

What about the GI50 (MDA-MB-435) of the same compound?
The GI50 was 3.55 µM (inactive).

What about the GI50 (BT-549) of the same compound?
Its GI50 is 10.4 µM (inactive).

And the GI50 (UACC-257)?
The GI50 was 25.5 µM (inactive).

And the GI50 (SF-295)?
Its GI50 is 6.41 µM (inactive).

And the GI50 (HCT-116)?
The GI50 was 1.87 µM (inactive).

What about the GI50 (SF-539) of the same compound?
Its GI50 is 2.19 µM (inactive).

What about the GI50 (HOP-92) of the same compound?
Its GI50 is 13.9 µM (inactive).

What about the GI50 (SNB-75) of the same compound?
Its GI50 is 5.27 µM (inactive).

And the GI50 (K562)?
The GI50 was 3.66 µM (inactive).

What about the GI50 (SF-268) of the same compound?
The GI50 was 5.19 µM (inactive).

What about the GI50 (LOX IMVI) of the same compound?
The GI50 was 2.27 µM (inactive).

And the GI50 (A549)?
Its GI50 is 8.71 µM (inactive).

What about the GI50 (NCI-H522) of the same compound?
Its GI50 is 2.81 µM (inactive).

What about the GI50 (SK-MEL-2) of the same compound?
The GI50 was 8.57 µM (inactive).

What about the GI50 (Malme-3M) of the same compound?
Its GI50 is 17.2 µM (inactive).

And the GI50 (SK-MEL-28)?
Its GI50 is 2.74 µM (inactive).

What about the GI50 (SK-MEL-5) of the same compound?
The GI50 was 4.02 µM (inactive).

What about the GI50 (HL-60) of the same compound?
Its GI50 is 3.08 µM (inactive).

Reference: ChEMBL document CHEMBL1201862, “PubChem BioAssay data set” (2004)
